Reference: patent US20070142362A1, “4,5-Dihydro-(1H)-pyrazole derivatives as cannabinoid CB1 receptor modulators” (SOLVAY PHARMACEUTICALS B.V., priority 2005, published 2007)

Tests used:
[1] = molecular target: T1, human CB1 receptor (Homo sapiens, UniProt P21554); assay: In vitro cannabinoid-CB1 receptor (ant)agonism: [3H]-arachidonic acid release in CHO cells; assay type: cell-based; conditions: CHO cells with human CB1 receptor, read-out: Human CB1 Arachidonic acid release (CB1) pEC50 (converted)
T1 construct: expressed in transfected cells; host or cells: CHO cells
Method: In Vitro Cannabinoid-CB1Receptor (Ant)Agonism
In vitro CB1 receptor antagonism/agonism can be assessed with the human CB1 receptor cloned in Chinese hamster ovary (CHO) cells. CHO cells are grown in a Dulbecco's Modified Eagle's medium (DMEM) culture medium, supplemented with 10% heat-inactivated fetal calf serum. Medium is aspirated and replaced by DMEM, without fetal calf serum, but containing [^3H]-arachidonic acid and incubated overnight in a cell culture stove (5% CO2/95% air; 37° C.; water-saturated atmosphere). During this period [^3H]-arachidonic acid is incorporated in membrane phospholipids. On the test day, medium is aspirated and cells are washed three times using 0.5 ml DMEM, containing 0.2% bovine serum albumin (BSA). CB1 agonist stimulation leads to activation of PLA2 followed by release of [^3H]-arachidonic acid into the medium. This CB1 agonist-induced release is concentration-dependently antagonized by CB1 receptor antagonists, such as for example rimonabant.

[2] = molecular target: T2, human cannabinoid CB1 receptor (Homo sapiens, UniProt P21554); assay: In vitro affinity for cannabinoid-CB1 receptors ([3H]CP-55,940 radioligand binding, CHO cell membranes); conditions: mean of at least three independent experiments, read-out: Human CB1 receptor binding pKi (converted)
T2 construct: expressed in transfected cells; host or cells: CHO cells, stably transfected; membrane preparation
Method: In Vitro Affinity for Cannabinoid-CB1 Receptors
(§1) The affinity of the compounds of the invention for cannabinoid CB1 receptors can be determined using membrane preparations of Chinese hamster ovary (CHO) cells in which the human cannabinoid CB1 receptor is stably transfected in conjunction with [^3H]CP-55,940 as radioligand. After incubation of a freshly prepared cell membrane preparation with the [^3H]-ligand, with or without addition of compounds of the invention, separation of bound and free ligand is performed by filtration over glassfiber filters. Radioactivity on the filter is measured by liquid scintillation counting.

[3] = molecular target: T3, human cannabinoid CB2 receptor (Homo sapiens, UniProt P34972); assay: In vitro affinity for cannabinoid-CB2 receptors ([3H]CP-55,940 radioligand binding, CHO cell membranes); conditions: mean of at least three independent experiments, read-out: Human CB2 receptor binding pK1 (converted)
T3 construct: expressed in transfected cells; host or cells: CHO cells, stably transfected; membrane preparation
Method: In Vitro Affinity for Cannabinoid-CB2 Receptors
as §1, with “CB2” for “CB1”

[4] = molecular target: T4, human CB2 receptor (Homo sapiens, UniProt P34972); assay: In vitro cannabinoid-CB2 receptor (ant)agonism: forskolin-stimulated cAMP accumulation (adenylate cyclase activity) in CHO K1 cells; assay type: cell-based; conditions: for EC50: agonism, 3x10^-7 M forskolin, read-out: Human CB2 CB2-mediated adenylate cyclase activity pEC50 (converted)
T4 construct: host or cells: CHO K1 cells
Method: In Vitro Cannabinoid-CB2 Receptor (Ant)Agonism
Functional activity at the cannabinoid CB2 receptor was assessed using a forskolin-stimulated cAMP accumulation assay. The ability of compounds to stimulate and inhibit adenylate cyclase activity was assessed in Chinese ovarian hamster (CHO) K1 cells expressing human CB2 (Euroscreen, Brussel) receptor. CHO cells were grown in a CHO—S—SFM-II culture medium, supplemented with 10% heat-inactivated foetal calf serum, 2 mM glutamine, 400 μg/ml Hygromycine B and 500 μg/ml G418 at 37° C. in 93% air/5% CO2. For incubation with test compounds, confluent cultures grown in 24 well plates were used. Each condition or substance was routinely tested in quadruplicate. Cells were loaded with 1 mCi [^3H]-adenine in 0.5 ml medium per well. After 2 hours, cultures were washed with 0.5 ml PBS containing 1 mM IBMX and incubated for 20 minutes with 0.5 ml PBS containing 1 mM IBMX and 3×10^−7 M forskolin with or without the test compound. Antagonistic effects of test compounds were determined as inhibition of 0.1 μM JWH-133-decreased [^3H]cAMP formation. After aspiration the reaction was stopped with 1 ml trichloroacetic acid (5% w/v). The [3H]-ATP and [^3H]-cAMP formed in the cellular extract were assayed as follows: a volume of 0.8 ml of the extract was passed over Dowex (50WX-4200-400 mesh) and aluminum oxide columns, eluted with water and 0.1 M imidazole (pH=7.5). Eluates were mixed with 7 ml Ultima-Flo [AP] and the β-radioactivity was counted with a liquid scintillation counter. The conversion of [^3H]-ATP into [^3H]-cAMP was expressed as the ratio in percentage radioactivity in the cAMP fraction as compared to the combined radioactivity in both cAMP and ATP fractions, and basal activity was subtracted to correct for spontaneous activity. […] Compounds were studied in a concentration range of 10^−10 M to 10^−6M. pEC50 and the pA2 were calculated according to Cheng-Prusoff equation (Cheng and Prusoff, 1973). […]

T3 sequence (P34972 whole entry): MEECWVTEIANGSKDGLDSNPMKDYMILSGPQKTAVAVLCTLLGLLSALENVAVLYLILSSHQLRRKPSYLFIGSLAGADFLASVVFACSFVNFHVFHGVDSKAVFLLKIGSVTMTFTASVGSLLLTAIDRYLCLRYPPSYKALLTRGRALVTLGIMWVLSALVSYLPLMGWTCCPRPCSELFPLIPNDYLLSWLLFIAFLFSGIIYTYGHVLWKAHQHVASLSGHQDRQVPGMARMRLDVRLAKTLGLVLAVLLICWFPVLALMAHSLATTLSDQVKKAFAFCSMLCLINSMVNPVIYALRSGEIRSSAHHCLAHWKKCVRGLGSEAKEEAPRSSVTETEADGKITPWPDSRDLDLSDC
T4 sequence (P34972 whole entry): as above
T2 sequence (P21554 whole entry): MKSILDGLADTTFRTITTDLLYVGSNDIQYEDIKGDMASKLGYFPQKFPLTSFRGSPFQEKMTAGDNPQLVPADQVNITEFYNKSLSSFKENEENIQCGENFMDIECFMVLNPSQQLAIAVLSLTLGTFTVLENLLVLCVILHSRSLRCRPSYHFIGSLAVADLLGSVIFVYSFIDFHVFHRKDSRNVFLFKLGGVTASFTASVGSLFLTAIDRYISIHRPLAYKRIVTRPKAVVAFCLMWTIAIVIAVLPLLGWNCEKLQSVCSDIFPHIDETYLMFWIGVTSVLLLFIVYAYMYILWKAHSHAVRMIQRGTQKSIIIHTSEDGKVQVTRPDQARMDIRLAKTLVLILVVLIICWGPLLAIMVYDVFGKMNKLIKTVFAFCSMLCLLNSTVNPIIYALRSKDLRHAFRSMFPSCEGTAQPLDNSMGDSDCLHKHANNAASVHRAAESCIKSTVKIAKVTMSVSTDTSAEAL
T1 sequence (P21554 whole entry): as above

SMILES | melting point [°C] | EC50 [1] [nM] | Ki [2] [nM] | Ki [3] [nM] | EC50 [4] [nM] | Human CB2 CB2-mediated adenylate cyclase activity pA2 ([4]; antagonism of 0.1 μM JWH-133-decreased [3H]cAMP formation)
CCCCCC1=NN(C(=O)NC2C3CC4CC(C3)CC2C4)CC1c1ccccc1 (centres unmarked) | 71 |  |  |  |  | 
COc1ccc(NC(=O)N2CC(c3ccc(Cl)cc3)C(Cc3ccc(Cl)cc3)=N2)cc1 (centres unmarked) | 116 to 119 |  |  |  |  | 
CCCCCC1=NN(C(=O)NC[C@@H]2CC[C@H]3C[C@@H]2C3(C)C)CC1c1ccccc1 (relative stereo) [Compound 1, N-[(1R,2S,5R)-rel-6,6-dimethylbicyclo[3.1.1]heptan-2-methyl]-3-(n-pentyl)-4-phenyl-4,5-dihydro-(1H)-pyrazole-1-carboxamide] |  | 2000 | 3.98 | 12.6 |  | 
CCCCC1=NN(C(=O)NC[C@@H]2CC[C@H]3C[C@@H]2C3(C)C)CC1c1ccccc1 (relative stereo) [Compound 7, N-[(1R,2S,5R)-rel-6,6-dimethylbicyclo[3.1.1]heptan-2-methyl]-3-(n-butyl)-4-phenyl-4,5-dihydro-(1H)-pyrazole-1-carboxamide] |  | 631 | 39.8 | 10 |  | 
CCCCCC1=NN(S(=O)(=O)NC[C@@H]2CC[C@H]3C[C@@H]2C3(C)C)CC1c1ccccc1 (relative stereo) [Compound 130, N-[(1R,2S,5R)-rel-6,6-dimethylbicyclo[3.1.1]heptan-2-methyl]-3-(n-pentyl)-4-phenyl-4,5-dihydro-(1H)-pyrazole-1-sulfonamide] |  |  | 316 | 126 |  | 
CCCCCC1=NN(C(=O)NCC23CC4CC(CC(C4)C2)C3)CC1c1ccccc1 (centres unmarked) [Compound 11, N-(1-Adamantyl)methyl-3-(n-pentyl)-4-phenyl-4,5-dihydro-(1H)-pyrazole-1-carboxamide] |  | 2000 | 15.8 | 7.94 |  | 
CCCCCC1=NN(C(=O)NCC2CCCCC2)CC1c1ccccc1 (centres unmarked) [Compound 12, N-(Cyclohexylmethyl)-3-(n-pentyl)-4-phenyl-4,5-dihydro-(1H)-pyrazole-1-carboxamide] |  |  | 15.8 | 50.1 |  | 
CCCCCC1=NN(C(=O)N[C@H]2C[C@H]3CC[C@]2(C)C3(C)C)CC1c1ccccc1 (stereo partly drawn) [Compound 13, N-[Endo-(1R,2S,4R)-1,7,7-trimethylbicyclo[2.2.1]hept-2-yl]-3-(n-pentyl)-4-phenyl-4,5-dihydro-(1H)-pyrazole-1-carboxamide] |  | 0.501 | 7.94 | 7.94 |  | 
CCCCCC1=NN(C(=O)Nc2cccc3ccccc23)CC1c1ccccc1 (centres unmarked) [Compound 18, N-(1-Naphtyl)-3-(n-pentyl)-4-phenyl-4,5-dihydro-(1H)-pyrazole-1-carboxamide] |  |  | 6.31 | 31.6 |  | 
CCCCC1=NN(C(=O)NC(C)(C)Cc2ccccc2)CC1c1cccc(F)c1 (centres unmarked) [Compound 39, N-(2-phenyl-1,1-dimethyl-ethyl)-3-(n-butyl)-4-(3-fluorophenyl)-4,5-dihydro-(1H)-pyrazole-1-carboxamide] |  |  | 3980 | 126 | 7.94 | 
CCCCC1=NN(C(=O)NC(C)(C)Cc2ccccc2)CC1c1ccccc1F (centres unmarked) [Compound 40, N-(2-phenyl-1,1-dimethyl-ethyl)-3-(n-butyl)-4-(2-fluorophenyl)-4,5-dihydro-(1H)-pyrazole-1-carboxamide] |  |  | 1580 | 158 | 7.94 | 
O=C(Nc1ccccc1)N1CC(c2ccc(Cl)cc2)C(Cc2ccc(Cl)cc2)=N1 (centres unmarked) [Compound 41, N-Phenyl-3-(4-chlorobenzyl)-4-(4-chlorophenyl)-4,5-dihydro-(1H)-pyrazole-1-carboxamide] | 156 |  | 316 | 200 |  | 
CC1(C)[C@@H]2CC[C@@]1(C)[C@@H](NC(=O)N1CC(c3ccccc3)C(CC3CC3)=N1)C2 (stereo partly drawn) [Compound 54, N-[Endo-(1R,2S,4R)-1,7,7-trimethylbicyclo[2.2.1]hept-2-yl]-3-(cyclopropylmethyl)-4-phenyl-4,5-dihydro-(1H)-pyrazole-1-carboxamide] |  | 251 | 25.1 | 39.8 |  | 
CCCCCC1=NN(C(=O)c2cccc3ccccc23)CC1c1ccccc1 (centres unmarked) [Compound 87, 1-(1-Naphtoyl)-3-(n-pentyl)-4-phenyl-4,5-dihydro-(1H)-pyrazole] |  | 15.8 | 79.4 | 100 |  | 
CCCCCC1=NN(C(=O)N[C@H]2C[C@H]3CC[C@]2(C)C3(C)C)CC1c1ccccc1 (stereo partly drawn) [Compound 97, N-Endo-[(1R,2S,4R)-1,7,7-trimethylbicyclo[2.2.1]hept-2-yl]-3-(n-pentyl)-4-phenyl-4,5-dihydro-(1H)-pyrazole-1-carboxamide] |  | < 1 | 5.01 | 5.01 |  | 9.2
CCCCCC1=NN(C(=O)NC2CCCCCC2)CC1c1ccccc1 (centres unmarked) [Compound 109, N-cycloheptyl-3-(n-pentyl)-4-phenyl-4,5-dihydro-(1H)-pyrazole-1-carboxamide] |  |  | 6.31 | 25.1 |  | 
